Tests used:
Experiment in all cases: relative viability (nuclei count vs DMSO), 5 days (fraction); higher = more cells survive
Silmitasertib + Olaparib = compound: O=C(O)c1ccc2c(c1)nc(Nc1cccc(Cl)c1)c1ccncc12 [Silmitasertib] + O=C(c1cc(Cc2n[nH]c(=O)c3ccccc23)ccc1F)N1CCN(C(=O)C2CC2)CC1 [Olaparib] (partner 8 µM)
Procedure, shortened: (§1)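 Relative viability equals treated-well nuclei counts divided by vehicle-well nuclei counts. Counts came from 4× images of lung cancer cell lines grown in 1536-well plates for 5 days after pin-tool dosing on the day after seeding. Dosing used one drug alone or a fixed anchor-drug dose plus five library-drug doses (not always all listed) in √10 steps, and values are medians of duplicate plates.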

[1] = compound: O=C(O)c1ccc2c(c1)nc(Nc1cccc(Cl)c1)c1ccncc12 [Silmitasertib] + CC1(C)CCC(c2ccc(Cl)cc2)=C(CN2CCN(c3ccc(C(=O)NS(=O)(=O)c4ccc(N[C@H](CCN5CCOCC5)CSc5ccccc5)c(S(=O)(=O)C(F)(F)F)c4)cc3)CC2)C1 [Navitoclax] (partner 0.5 µM)
Procedure, shortened: as §1

[2] = compound: O=C(O)c1ccc2c(c1)nc(Nc1cccc(Cl)c1)c1ccncc12 [Silmitasertib] + Cc1cc(Nc2cc(N3CCN(C)CC3)nc(Sc3ccc(NC(=O)C4CC4)cc3)n2)n[nH]1 [Tozasertib] (partner 0.1 µM)
Procedure, shortened: as §1

[3] = compound: O=C(O)c1ccc2c(c1)nc(Nc1cccc(Cl)c1)c1ccncc12 [Silmitasertib] + CC(=O)Nc1cccc(-n2c(=O)n(C3CC3)c(=O)c3c(Nc4ccc(I)cc4F)n(C)c(=O)c(C)c32)c1 [Trametinib] (partner 0.02 µM)
Procedure, shortened: as §1

Silmitasertib + OSI-027 = compound: O=C(O)c1ccc2c(c1)nc(Nc1cccc(Cl)c1)c1ccncc12 [Silmitasertib] + COc1cccc2cc(-c3nc([C@H]4CC[C@H](C(=O)O)CC4)n4ncnc(N)c34)[nH]c12 [OSI-027] (partner 0.5 µM)
Procedure, shortened: as §1

| Cell Line | relative viability (Silmitasertib + Olaparib; first compound 0.04 µM) | relative viability (Silmitasertib + Olaparib; first compound 0.4 µM) | relative viability (Silmitasertib + Olaparib; first compound 1.265 µM) | relative viability (Silmitasertib + Olaparib; first compound 4 µM) | relative viability ([1]; first compound 0.04 µM) | relative viability ([1]; first compound 1.265 µM) | relative viability ([1]; first compound 4 µM) | relative viability ([2]; first compound 0.04 µM) | relative viability ([2]; first compound 0.4 µM) | relative viability ([2]; first compound 1.265 µM) | relative viability ([2]; first compound 4 µM) | relative viability ([3]; first compound 0.04 µM) | relative viability ([3]; first compound 0.4 µM) | relative viability ([3]; first compound 1.265 µM) | relative viability ([3]; first compound 4 µM) | relative viability (Silmitasertib + OSI-027; first compound 0.04 µM) | relative viability (Silmitasertib + OSI-027; first compound 0.4 µM) | relative viability (Silmitasertib + OSI-027; first compound 1.265 µM) | relative viability (Silmitasertib + OSI-027; first compound 4 µM) | relative viability ([1]; first compound 0.4 µM) |
| --- | --- | --- | --- | --- | --- | --- | --- | --- | --- | --- | --- | --- | --- | --- | --- | --- | --- | --- | --- | --- |
| HCC-366 | 0.396 | 0.213 | 0.373 | 0.387 | 1.15 | 0.921 | 0.82 | 0.107 | 0.0962 | 0.0628 | 0.0717 | 0.354 | 0.337 | 0.318 | 0.255 | 0.896 | 0.489 | 0.7 | 0.0818 | – |
| HCC-827 | 0.659 | – | 0.705 | 0.735 | 1.11 | 1.09 | 1.19 | 0.454 | – | 0.398 | 0.471 | 0.604 | – | 0.406 | 0.422 | 0.872 | – | 0.702 | 0.736 | – |
| HOP-62 | 0.427 | – | 0.378 | 0.338 | 0.996 | 0.961 | 0.849 | 0.4 | – | 0.341 | 0.296 | 0.408 | – | 0.388 | 0.549 | 0.897 | – | 0.905 | 0.497 | – |
| IA-LM | 0.899 | 0.561 | 0.791 | 0.614 | 1.08 | 0.968 | 0.623 | – | – | – | – | – | – | – | – | – | – | – | – | 0.665 |
| LC-2-ad | 0.712 | 0.522 | 0.754 | 0.663 | 0.462 | 0.392 | 0.261 | 0.537 | 0.411 | 0.388 | 0.374 | 0.987 | 0.813 | 0.892 | 0.772 | 0.982 | 0.709 | 0.721 | 0.483 | 0.383 |
| LCLC-97TM1 | 0.382 | – | 0.213 | 0.234 | 0.504 | 0.484 | 0.279 | 0.247 | – | 0.168 | 0.162 | 0.217 | – | 0.156 | 0.145 | 0.545 | – | 0.339 | 0.198 | – |
| LCLC-103H | 0.817 | 0.719 | 0.641 | 0.664 | – | – | – | 0.522 | 0.341 | 0.356 | 0.289 | 0.689 | 0.71 | 0.648 | 0.636 | 0.519 | 0.4 | 0.438 | 0.384 | – |
| LK-2 | 0.798 | 0.283 | 0.663 | 0.346 | 0.854 | 0.732 | 0.576 | 0.165 | – | 0.169 | 0.19 | 0.674 | – | 0.678 | 0.702 | 0.266 | – | 0.247 | 0.184 | 0.696 |
| LOU-NH91 | 0.941 | 0.839 | 0.8 | 0.814 | 0.852 | 0.549 | 0.464 | 0.689 | 0.539 | 0.441 | 0.484 | 0.786 | 0.771 | 0.722 | 0.731 | 0.709 | 0.665 | 0.629 | 0.543 | 0.596 |
| LU99A | 0.277 | 0.287 | 0.216 | 0.204 | 0.911 | 0.622 | 0.546 | 0.316 | 0.29 | 0.263 | 0.256 | 0.5 | 0.549 | 0.38 | 0.461 | 0.276 | 0.293 | 0.314 | 0.255 | 0.735 |
| LXF-289 | 0.995 | – | 0.935 | 1.07 | 0.917 | 1.01 | 1 | 0.212 | – | 0.186 | 0.182 | 0.666 | – | 0.752 | 0.836 | 0.78 | – | 0.805 | 0.532 | – |
| NCI-H23 | 0.351 | 0.217 | 0.272 | 0.251 | 0.957 | 0.732 | 0.728 | 0.427 | – | 0.223 | 0.188 | 0.439 | 0.323 | 0.365 | 0.36 | 0.706 | – | 0.423 | 0.206 | – |
| NCI-H358 | 0.696 | 0.396 | 0.483 | 0.36 | – | – | – | 0.121 | 0.0941 | 0.115 | 0.083 | 0.163 | 0.127 | 0.145 | 0.143 | 1.09 | 0.349 | 0.519 | 0.376 | – |
| NCI-H522 | 0.633 | 0.58 | 0.774 | 0.592 | – | – | – | 0.611 | 0.464 | 0.541 | 0.574 | 0.715 | 0.68 | 0.814 | 0.817 | 0.739 | 0.762 | 0.684 | 0.67 | – |
| NCI-H650 | 0.4 | 0.232 | 0.317 | 0.294 | – | – | – | 0.874 | 0.492 | 0.496 | 0.355 | 1.01 | 0.567 | 0.666 | 1.21 | 0.699 | 0.424 | 0.515 | 0.366 | – |
| NCI-H661 | 0.735 | 0.679 | 0.629 | 0.493 | – | – | – | 0.346 | 0.368 | 0.334 | 0.364 | 0.645 | 0.605 | 0.667 | 0.615 | 0.864 | 0.593 | 0.635 | 0.577 | – |
| NCI-H1563 | – | – | – | – | – | – | – | – | – | – | – | – | – | – | – | 0.773 | 0.773 | 0.779 | 0.681 | – |
| NCI-H1703 | 0.513 | 0.368 | 0.541 | 0.573 | 1.44 | 1.15 | 0.807 | – | – | – | – | – | – | – | – | – | – | – | – | 1.01 |
| NCI-H1792 | 0.308 | 0.421 | 0.431 | 0.281 | 0.651 | 0.573 | 0.414 | – | – | – | – | 0.407 | 0.478 | 0.432 | 0.562 | 0.815 | 0.675 | 0.782 | 0.699 | 0.512 |
| SW 900 | 0.883 | 0.701 | 0.739 | 0.568 | – | – | – | 0.649 | 0.413 | 0.38 | 0.349 | 0.929 | 0.624 | 0.647 | 0.492 | 0.648 | 0.304 | 0.388 | 0.207 | – |

From the supplement of paper PMC10307832
